Laboratory results from patent US11364280B2, “Method for blocking stress-induced tumor progression” (Taipei Veterans General Hospital, priority 2018, dated 2022).
pEC50, pKd: −log10 of the molar value. No end group written: not given here.

Assays:
MSI1/AGO2 interaction [1] = target: T1, MSI1/AGO2 interaction (Homo sapiens, UniProt Q9UKV8); assay: Co-immunoprecipitation of endogenous MSI1 and AGO2 under hypoxia; assay type: cell-based; parameters: endogenous in cells; conditions: 10 μM peptide, hypoxic condition
MSI1/AGO2 interaction [2] = target: T1, MSI1/AGO2 interaction; assay: Split Gaussia luciferase reconstitution reporter assay; assay type: cell-based; parameters: expressed in transfected cells; lysates used for the in vitro read-out
Method: (§1) The relative orientation of peptide-binding site and AGO2 pocket was depicted. […] The recombinant AGO2 protein was immobilized on CM5 chip and incubated with a serial dilution (from 625 to 10000 nM) of the two peptides, respectively. The association and dissociation between TAT-11, TAT-26 and immobilized AGO2 were tested by SPR (top). The association rate constant (Ka), dissociation rate constant (Kd), and equilibrium dissociation constant (KD) were calculated and presented in the chart (bottom).
FIG. 14A provides schematic presentation of the constructs of full-length, C-terminus, and N-terminus of MSI1 as well as wild-type AGO2 for purifying recombinant proteins. FIG. 14B provides pull-down assay with recombinant MSI1 and AGO2 proteins showing that the C-terminus of MSI1 is essential for the direct MSI1/AGO2 interaction. […] FIG. 14D provides the schematic illustration of the split luciferase reconstitution imaging system to real-time monitor the interaction between MSI1 and AGO2.
To use Gaussia luciferase (Gluc) for detecting protein-protein interaction, we split Gaussia luciferase into NGluc (N-terminal Gluc, 106 a.a.) and CGluc (C-terminal Glue. 79 a.a.)^53,54. The two fragments were amplified by polymerase chain reaction (PCR) and subjected to construct fusion protein with MSI1 and AGO2 by the pcDNA 3.1 and pCMV backbone, respectively. Each fusion protein contains a flexible linker (GGGGS)2 between the protein and polypeptides of split luciferase^55,56. Stable cell lines were obtained by stable transfection of both fusion protein expressive plasmids in 05 MG GBM cell line with Hygromycin B (Sigma Aldrich Co., St. Louis, […]., USA) and G418 sulfate (Merck Co., Berlin, Germany). […] The bioluminescent signals were acquired by Wallac 1420 Victor^2 Microplate Reader (Perkin Elmer, Waltham. Mass., USA) equipped with auto-dispenser to avoid rapid decay of GLuc. […] The region of interests (ROI) was automatically chosen by the Living Image 4.2 software and quantified as photon flux in a certain area per second (photons/s/cm^2).

in vitro = conditions: human
Method: (§2) After 0.5, 1, 2, 4 and 6 hours, cell lysates were collected and the fluorescent intensity was detected by ELISA reader. N=3 at each time point. […] Cells were washed and observed under microscopy at the indicated time points. […] To facilitate comparison of intake and degradation dynamics, mean fluorescence values were normalized to stating fluorescence. All data represent three independent experiments.

[3] = target: T2, His-tagged AGO2 recombinant protein (Homo sapiens, UniProt Q9UKV8); assay: Affinity measurement by surface plasmon resonance (SPR); assay type: binding; conditions: AGO2 immobilized on CM5 chip; peptide serial dilution 625 to 10000 nM; Langmuir 1:1 model; read-out: equilibrium dissociation constant (KD)
T2 construct: made in house; host or cells: High Five insect cells (baculovirus, Bac-To-Bac; virus made in Sf9)
Method: as §1
A Biacore T200 (GE Healthcare) was used to study the binding affinity of the TAT-11 and TAT-26 peptides with recombinant His-tagged AGO2 protein. The recombinant His-AGO2 and TAT peptides were diluted in HBS-P buffer ([…], 150 mM NaCl and 0.005% P20, pH 7.4). To evaluate the binding affinity, recombinant His-AGO2 was immobilized on a CM5 sensor chip (GE Healthcare, BR100012) via amine coupling (˜7000 RU) for 3600 sec at rate of 5 μl/mins, followed by dissociation for 600 s. After injection of each peptide, the surface was regenerated with an injection of 10 mM NaOH. All sensorgrams were double referenced by subtracting the surface effect from the control flow […] and the buffer effect form the blank buffer. The kinetic values Ka, Kd and KD were obtained using Biacore […] Evaluation Software (GE healthcare) assuming the Langmuir 1:1 binding model.

[4] = system: MSI1/AGO2 downstream mRNA; assay: qRT-PCR of downstream mRNA targets of MSI1-AGO2, hypoxia versus normoxia; assay type: cell-based, human; conditions: six targets
Method: FIG. 4A provides a schematic illustrating the full-length and C-terminal (C-term) fragment of human MSI1. The construct of MSI1 C-term was sub-cloned into p-3×Flag-Myc-CMV expression vector. […] Quantification of the fold changes of binding signals was performed by normalizing IP signals to IgG-precipitated controls. The peaks indicated MSI1 or AGO2 palindromic-binding sequence. […] Purified total RNA was subjected to RT-PCR using primers specific for NF2, TP53, CDKN1A, CCND1, CDK4, and HELLS. The mRNA levels under hypoxia were normalized with that under normoxia and presented as relative fold changes in the chart. […] The relative fold change of the number of viable cells in each day was presented in the graph. […] Xenograft tumor size was monitored from day 2 after injection of Flag-control or Flag-C-term. […] Tumor size was then monitored for 22 days. The expression of MIS1-C-term in the xenograft tumor tissue was assessed by Western blot. […] […]
Oligonucleotide specificity was computer tested (BLAST, National Center for Biotechnology Information. Bethesda. Md., USA) by homology search with the human genome and later confirmed by melting curve analysis. […] Signals were detected using 7900HT Fast Real-time PCR system (Applied Biosystems, Foster City, Calif., USA). […]

05 MG cells = assay: Cellular uptake of fluorescein labeled peptides, fluorescence read by ELISA reader
Method: The biological activity of peptides was tested in 05 MG cell line. The cells were treated with different concentration of fluorescein labeled peptides and was measured using ELISA reader.
as §2

[5] = system: MSI1 translocation into the cytosol in 05 MG cells; assay: MSI1 subcellular translocation (immunostaining, fractionation immunoblot); assay type: cell-based, human; conditions: cisplatin 30 μM, 24 hours
Method: Magnifying power: 200× (top) and 600× (bottom). Quantitation of cells expressing cytoplasmic or nuclear MSI1 is shown in the bar graph on the right. FIG. 1B 05 MG cells pre-treated with or without nuclear export inhibitor leptomycinB (LMB) (10 ng/mL, 2 h) under normoxia or hypoxia conditions for 24 hr were subjected to anti-MSI1 (green) immunostaining and DAPI (blue) nuclear counterstaining. Images were acquired from Carl Zeiss confocal microscope system. The intensity of green fluorescence in nuclear and cytosol was quantified and shown as relative percentage in the graph at the right. […] FIG. 1D provides a schematic showing the mutation sites in the NLS (orange) and NES (red) of human MSI1. All constructs were sub-cloned into p-3×Flag-Myc-CMV expression vector. […] Images were acquired from Carl Zeiss confocal microscope system, and the quantification of fluorescent intensity in the nuclear and cytosolic compartments was shown as relative percentage in the graph at the left. […] Tumor size was measure with a caliper at the indicated time points. […] The tumor size was measured with a caliper at the indicated time points. […]
The ratio of MSI1 expression in each group was presented in the graph. […] Hypoxia-induced apoptosis was withdrawn by the over-expression of wild-type MSI1 but not in mutant MSI1 groups determined by annexin V staining, MTT assay, and colony forming assay. […]

05 MG/MSI1-wt xenografts = assay: Cisplatin treatment of subcutaneous xenografts overexpressing MSI1-wt; assay type: in vivo, mice; conditions: 477.437 mm^3 without cisplatin
Method: Magnifying power: 200× (top) and 600× (bottom). Quantitation of cells expressing cytoplasmic or nuclear MSI1 is shown in the bar graph on the right. FIG. 1B 05 MG cells pre-treated with or without nuclear export inhibitor leptomycinB (LMB) (10 ng/mL, 2 h) under normoxia or hypoxia conditions for 24 hr were subjected to anti-MSI1 (green) immunostaining and DAPI (blue) nuclear counterstaining. Images were acquired from Carl Zeiss confocal microscope system. The intensity of green fluorescence in nuclear and cytosol was quantified and shown as relative percentage in the graph at the right. […] FIG. 1D provides a schematic showing the mutation sites in the NLS (orange) and NES (red) of human MSI1. All constructs were sub-cloned into p-3×Flag-Myc-CMV expression vector. […] Images were acquired from Carl Zeiss confocal microscope system, and the quantification of fluorescent intensity in the nuclear and cytosolic compartments was shown as relative percentage in the graph at the left. […] Tumor size was measure with a caliper at the indicated time points. […] Images were acquired from Carl Zeiss confocal microscope system. […] The tumor size was measured with a caliper at the indicated time points. […]
All procedures involving animals were performed in accordance with the institutional animal welfare guidelines of Taipei Veterans General Hospital. […] Tumor size was measured with calipers^38. […]

T1 sequence (Q9UKV8 whole entry): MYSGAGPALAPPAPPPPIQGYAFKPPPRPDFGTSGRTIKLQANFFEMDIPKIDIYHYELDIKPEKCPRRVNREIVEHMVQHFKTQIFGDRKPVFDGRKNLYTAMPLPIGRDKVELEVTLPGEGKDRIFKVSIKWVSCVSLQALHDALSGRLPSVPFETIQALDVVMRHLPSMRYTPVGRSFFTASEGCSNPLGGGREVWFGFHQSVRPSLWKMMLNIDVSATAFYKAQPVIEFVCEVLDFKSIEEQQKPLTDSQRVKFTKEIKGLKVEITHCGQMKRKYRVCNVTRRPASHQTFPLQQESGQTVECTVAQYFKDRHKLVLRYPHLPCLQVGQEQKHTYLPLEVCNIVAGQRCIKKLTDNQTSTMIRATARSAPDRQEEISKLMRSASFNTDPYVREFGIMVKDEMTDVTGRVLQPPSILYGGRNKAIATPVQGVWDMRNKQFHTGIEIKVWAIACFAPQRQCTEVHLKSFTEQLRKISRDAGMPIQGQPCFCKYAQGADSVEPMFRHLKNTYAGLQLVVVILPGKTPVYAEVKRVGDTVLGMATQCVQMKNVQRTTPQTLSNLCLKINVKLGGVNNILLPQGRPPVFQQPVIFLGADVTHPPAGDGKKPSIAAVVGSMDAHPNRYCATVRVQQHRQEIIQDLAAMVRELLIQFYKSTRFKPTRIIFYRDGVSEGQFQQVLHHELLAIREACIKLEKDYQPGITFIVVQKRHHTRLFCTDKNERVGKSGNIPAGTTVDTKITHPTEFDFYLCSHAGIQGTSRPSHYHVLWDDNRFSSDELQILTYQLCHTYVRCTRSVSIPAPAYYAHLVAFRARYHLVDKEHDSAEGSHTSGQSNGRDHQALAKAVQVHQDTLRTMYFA
T2 sequence (Q9UKV8 whole entry): as above

YQFPEFRVERTPLPSGRKKRRQRRRPPQ [TAT-11]
effect on MSI1/AGO2 interaction (co-IP immunoblot) (MSI1/AGO2 interaction [1]): effectively abrogated the MSI1/AGO2 interaction
effect on bioluminescent signal of split Gaussia luciferase (MSI1/AGO2 interaction [2]; 10 μM peptide, in vitro and in vivo): dramatically turned down the bioluminescent signal in vitro and in vivo
half-life (in vitro): ≤ 4 h
pKd [3]: 5.48
effect of MSI1/AGO2 binding on downstream mRNA [4]: reversed
time to significant cellular uptake (05 MG cells; 05 MG cells): within one hour
pEC50 (05 MG cells; read-out: half-uptake concentration (EC50), fluorescein labeled peptides, 05 MG cell line): 5.04

N.N.[Cl][Pt][Cl] [cisplatin]
translocation of MSI1 in 05 MG cells [5]: induced
bioluminescent signal of split Gaussia luciferase (MSI1/AGO2 interaction [2]; in the presence of cisplatin, IVIS): increase of the bioluminescent signal
tumor volume at day 22 (05 MG/MSI1-wt xenografts): 774.365 mm^3
